Values of other authors in patent publication US8278351B2, “Natural marine source phospholipids comprising polyunsaturated fatty acids and their applications” (priority 2001, dated 2012).

How the values were obtained:
[1] = high-dose inositol
Alzheimer's Disease [2] = tested on: Alzheimer's Disease
depression = settings: 12 grams daily; placebo 0.6+/−10
[3] = tested on: Obsessive Compulsive Disorder; settings: week six, compared to placebo period
panic disorder = settings: four weeks
[4] = tested on: breast, ovarian, and lung cancer cells, mesothelioma cells
cancer cells = settings: in vitro
cognitive decline = settings: 300 mg. per day for six months, versus placebo
memory impairment = settings: 300 mg. daily, three months
Alzheimer's Disease [5] = settings: 300 mg. per day for six weeks, 35 patients
mitochondrial DNA = settings: treated group versus control; brain and cochlea
[6] = tested on: mitochondrial membrane potentials; settings: experimental group, peripheral blood

O[C@H]1[C@H](O)[C@@H](O)[C@H](O)[C@@H](O)[C@H]1O [inositol]
increase of CSF levels of inositol [1]: ≤ 70%
CAMCOG subscales language and orientation (Alzheimer's Disease [2]; only two of the eight subscales): significant improvement
total CAMCOG score after inositol (Alzheimer's Disease [2]; six grams inositol daily, four weeks): 40.09+/−24.54
total CAMCOG score, baseline (Alzheimer's Disease [2]; six grams inositol daily, baseline): 31.36+/−20.90
improvement in depression as ranked by the Hamilton Depression Rating Scale (depression): 33.4+/−6
improvement in OCD [3]: significant improvement
frequency and severity of panic attacks and severity of agoraphobia (panic disorder; versus placebo): declined significantly more after inositol than after placebo
panic attacks after treatment (panic disorder; decrease from 10 attacks per week, placebo 10 to 6): 3 per week

Phosphatidylcholine
dosage tolerated by normal cells relative to leukemic cells (HL60 leukemic cells; 24 hours incubation): 4 times
inhibition of HL60 leukemic cells (HL60 leukemic cells; versus normal human marrow cells): inhibit HL60 leukemic cells at a dosage that has no effect on normal human marrow cells
difference in sensitivity between normal and tumor cells [4]: ≤ 5 fold
cytotoxicity to cancer cells (cancer cells): selectively cytotoxic

Phosphatidylserine [PS]
memory and learning (cognitive decline): significantly improved
mental gain (memory impairment): 12 years
improvement in Alzheimer's patients (Alzheimer's Disease [5]): significant improvement

Polyunsaturated phosphatidylcholine
mitochondrial DNA damage (mitochondrial DNA): less mitochondrial DNA damage
mean fluorescence intensity (MFI), beginning of the study ([6]; beginning of the study): 3165
mean fluorescence intensity (MFI), end of the study ([6]; end of the study (six months)): 2990
preservation of hearing at all frequencies (3, 6, 9, 12 and 18 kHz) (age-related hearing loss; 300 mg/kg/day oral diet, four and six months of treatment): statistically significant preservation of hearing
overall effect on decline in hearing (age-related hearing loss; 300 mg/kg/day, p<0.005 versus control): statistically significant protective effect
